Tests used:
[1] = test system: Rpe65^−/− mice; details: mouse, in vivo
Description: (§3) Electroretinogram (ERG)—ERGs were recorded on anesthetized mice as described in, e.g., Maeda A, et al. Role of photoreceptor-specific retinol dehydrogenase in the retinoid cycle in vivo.
(§4) Briefly, mice first were dark-adapted overnight prior to recording. Then under a safety light, mice were anesthetized by intraperitoneal injection of 20 μl/g body weight of 6 mg/ml ketamine and 0.44 mg/ml xylazine diluted with 10 mM sodium phosphate, pH 7.2, containing 100 mM NaCl. Pupils were dilated with 1% tropicamide. A contact lens electrode was placed on the eye and a reference electrode and ground electrode were positioned on the ear and tail, respectively. ERGs were recorded with the universal testing and electrophysiologic system (UTAS) E-3000 (LKC Technologies, Inc.).
(§5) Single-flash recording—White light flash stimuli were employed with a range of intensities (from −3.7 to 2.8 log cd·s·m^·2), and flash durations were adjusted according to intensity (from 20 μs to 1 ms). Two to five recordings were made at sufficient intervals between flash stimuli (from 10 s to 10 min) to allow mice to recover. Typically, four to eight animals were used for recording each point. The one-way ANOVA test was used for statistical analysis of responses. […]

[2] = test system: Rpe65^−/− mice; test: Retinal histology after intermittent and daily administration for 8 weeks; type: in vivo; details: for Retinal cross-section morphology: 8 weeks
Text: Histology and Immunohistochemistry—Histological procedures employed for the eye analyses as described in Maeda A, et al. supra.
(§1) The dosing regimens are illustrated in FIG. 7.

[3] = test system: Rpe65^−/− mice; details: mouse, in vivo; remark: listed apart in the source
Description: as §3, §4
(§6) Single-flash recording—White light flash stimuli were employed with a range of intensities (from −3.7 to 2.8 log cd·s·m^·2), and flash durations were adjusted according to intensity (from 20 μs to 1 ms). Two to five recordings were made at sufficient intervals between flash stimuli (from 10 s to 10 min) to allow mice to recover. Typically, four to eight animals were used for recording each point. The one-way ANOVA test was used for statistical analysis of responses.
To test this directly, 5-week-old Rpe65^−/− mice were gavaged daily with 9-cis-R-Ac in soybean oil at doses of 1, 4, or 12.5 mg/kg for 14 days. […]

[4] = Retinoid levels in eyes and liver after 14 days of daily dosing; type: in vivo, Rpe65^−/− and C57Bl/6 mice
Description: (§2) Analyses of Retinoic Acid and Non-polar Retinoids—All experimental procedures related to extraction, retinoid derivatization and separation of retinoids were done under dim red light provided by a Kodak No. 1 safelight filter (transmittance>560 nm). Retinoic acid extraction from liver was performed as formerly described in, e.g., Batten M L. et al. supra. Analyses of polar retinoids in plasma, eye and liver were performed with an Agilent 1100 HPLC and two tandem normal phase columns: a Varian Microsorb Silica 3 μm, 4.6×100 mm (Varian, Palo Alto, Calif.) and an Ultrasphere-Si, 5 μm, 4.6×250 mm column (Aleman T S, et al. supra). An isocratic normal phase system of hexane: 2-propanol:glacial acetic acid (1000:4.3:[…]; v/v/v) was used for elution at a flow rate of 1 ml/min at 20° C. with detection at 355 nm. Calibration was done with standards of all-trans-retinoic acid and 9-cis-retinoic acid purchased from Sigma-Aldrich. Analyses of non-polar retinoids in plasma, eye and liver were carried out by normal phase HPLC (Ultrasphere-Si, 5 μm, 4.6×250 mm, Beckman, Fullerton, Calif.) with 10% ethyl acetate and 90% hexane at a flow rate of 1.4 ml/min with detection at 325 nm by an HP1100 HPLC with a diode array detector and HP Chemstation A.03.03 software.

[5] = Plasma retention of 9-cis-retinyl acetate metabolites after single gastric gavage; type: in vivo, C57/Bl6 mice; details: for Absorption (plasma levels of fatty acid 9-cis-retinyl esters and 9-cis-retinol): compared to canola and rapeseed oils, 50 mg/kg gavage
Description: as §2
Several different oil-based preparations were prepared to test the absorption levels of 9-cis-R-Ac in plasma. More specifically, a single 50 mg/kg dose of 9-cis-retinyl acetate (50 mg/kg) suspended in 4 different vehicle oils was administrated by gastric gavage to 5-week-old C57/Bl6 mice and retinoid levels were determined in the plasma thereafter (n=5 for each time point per group).

[6] = Clinical side effects after single doses of 9-cis-R-Ac; type: in vivo, Rpe65^−/− mice; details: single doses up to 50 mg/kg in soybean oil
Description: Single doses (2-50 mg/kg) of 9-cis-R-Ac in soybean oil were administered to 5-week-old Rpr65Rpe65^−/− mice to test whether the pre-prodrug 9-cis-R-Ac was capable of delivering artificial chromophore to the eye.
(§7) Following dark-adaption for 3 days post-gavage, scotopic single flash ERGs were recorded and eyes were collected to assess 9-cis-retinal levels.

[7] = Retinoid analyses of eye and liver after 8-week regimens; type: in vivo, Rpe65^−/− mice; details: 8-week intermittent and daily regimens
Description: as §2, §1

[8] = test system: Rpe65^−/− mice; details: mouse, in vivo; remark: listed apart in the source
Description: as §3, §4, §5, §7

[9] = 9-cis-retinal levels in the eye after 3 daily doses; type: in vivo, Rpe65^−/− mice
Description: as §2

[10] = test system: Rpe65^−/− mice; details: mouse, in vivo; remark: listed apart in the source
Description: as §4, §6
Rpe65^−/− mice were split into two groups (an intermittent group and a daily group), each treated for a total of 8 weeks with 1 or 4 mg/kg of 9-cis-R-Ac. […] ERGs were recorded at day 28 and again at day 56, after which tissues were collected for retinoid analyses of the eye and liver and histology of the eye.

[11] = Retinoid levels in eyes after single doses of 9-cis-R-Ac; type: in vivo, Rpe65^−/− mice
Description: as §2

Duration of positive ERG effect after treatment [1]: 4 to 6 days | Lowest daily test dose evoking significant improvement in retinal function [3]: 1 mg/kg | 9-cis-retinal in eyes ([4]; 1 mg/kg daily for 14 days): No 9-cis-retinal was detected | 9-cis-retinal in eyes ([4]; 4 mg/kg daily for 14 days): 38 ± 4 pmol | 9-cis-retinal in eyes ([4]; 12.5 mg/kg daily for 14 days): 95 ± 14 pmol | Fatty acid 9-cis-retinyl esters in eyes ([4]; 4 and 12.5 mg/kg/day groups, 14 days): 1 pmol/eye | Fatty acid 9-cis-retinyl esters in livers ([4]; daily dosing 14 days, C57Bl/6 and Rpe65^−/− mice): accumulate in a dose-dependent manner | Plasma levels of all-trans-retinol and fatty acid all-trans-retinyl esters ([5]; among the test vehicles and during the 23 h test period): did not differ significantly | Absorption (plasma levels of fatty acid 9-cis-retinyl esters and 9-cis-retinol) ([5]; in soybean oil): best absorption | Absorption (plasma levels of fatty acid 9-cis-retinyl esters and 9-cis-retinol) ([5]; in sunflower oil): best absorption | Time of highest plasma levels of 9-cis-retinoids ([5]; single 50 mg/kg gastric gavage, C57/Bl6 mice): 3 h | 9-cis-retinal in the eyes [7]: detected in a dose-dependent manner | ERG effect of lower doses [8]: positive ERG effects | Lowest tested dose that provided significant ERG improvement [8]: 6.25 mg/kg | 9-cis-retinal in the retinas ([9]; day 4, all treated mice (1, 4, 12.5 mg/kg/day for 3 days)): detected | 9-cis-retinal in the retinas ([9]; day 9, after 3 daily doses): No 9-cis-retinal was found | Dose sufficient for significant improvement in ERG responses over control [10]: 1 mg/kg | 9-cis-retinol in eyes ([11]; single dose 50 mg/kg): 43 pmol/eye | 11-cis-retinoids in eyes ([11]; single doses): No 11-cis-retinoids were detected | 9-cis-retinal in the eye ([11]; single doses 2 and 4 mg/kg): trace levels
SMILES: CC(=O)OC/C=C(C)/C=C/C=C(C)\C=C\C1=C(C)CCCC1(C)C [9-cis-R-Ac, 9-cis-retinyl acetate]
Retinal cross-section morphology ([2]; 1 mg/kg by either schedule, vs control mice): no significant change | Retinal cross-section morphology ([2]; 4 mg/kg daily or 4 mg/kg intermittent): improvement of rod outer segment (ROS) morphology | Effect on retina (photoreceptor outer segment lengths, nuclei in outer nuclear layer) ([2]; 8-week administration): dose-dependent protective effect | all-trans-retinol and 9-cis-retinol in eyes ([4]; daily dosing 14 days, any group): Neither all-trans-retinol nor 9-cis-retinol was found | Clinical side effects [6]: no obvious clinical side effects | Fatty acid 9-cis-retinyl esters in eyes ([11]; single doses, all analyzed eyes): No fatty acid 9-cis-retinyl esters were detected
